Experimental data: patent US9149424B2, “Compositions and methods for reducing hepatotoxicity associated with drug administration” (YALE UNIVERSITY, priority 2007, dated 2015)
Entries after “also recorded” stand apart in the source; their conditions may differ.

Experiments:
wild-type mice [1] = assay: Acetaminophen (APAP) induced hepatotoxicity, survival over 72 hours; assay type: in vivo, mouse
Description: C57BL/6 mice were purchased from commercial sources. […] These mice have been described previously (39, 40). IL-1β was neutralized in by using the anti-IL-1β antibody from clone B122 (a gift of R. Schreiber, Washington University) at a dose of 0.2 mg/mouse iv twice a day for a total of 48 hours after giving APAP. Control mice received Armenian hamster isotype control antibody. For survival experiments animals were euthanized when they became moribund using criteria of lack of response to stimuli or lack of righting reflex. Animal protocols were approved by the Yale University animal care and use committee. [include references for IPAF−/− (M. Lara-Tejero et al. JEM 2006) and IL-18−/−. Need to add TLR9−/− and TLR3−/−]
(§1) APAP (Sigma, Mo.) solution was made fresh for each experiment in PBS at 20 mg/ml and heated in a water bath to 55° C. to dissolve. APAP was dosed at 500 mg/kg and injected I.P after 15 hrs of starvation. Animals were euthanized by ketamine/xylazine injection at 12 hours for collection of serum, isolation of liver lymphocytes or collection of liver tissue for histology, or they were observed every four hours for 72 hours until they reached criteria for euthanasia (lack of response to stimuli or lack of righting reflex).
(§2) Aspirin (Sigma, Mo.) was made fresh for each experiment. For dosing prior to APAP it was dissolved in single deionized water at 60 mg/l and heated to 42° C. with rapid stirring to dissolve, then rapidly placed in an ice water bath to cool. Aspirin in water was given to the mice 60-72 hours prior to APAP injection. Assuming water consumption of 3-5 ml per day this dose would be equivalent to a 300-500 mg dose in an 80 kg adult human. For co-administration of APAP and aspirin, aspirin was gavaged at a dose of 6 mg/kg in a volume of 100 ul of water immediately after ip injection of APAP. Clopidogrel (Gilead Pharmaceuticals, CA.) was dissolved in PBS at 6 mg/ml and administered by gavage of 100 ul, 30 mg/kg, every 24 hours beginning 48 hours prior and ending 24 hours after APAP injection. Cox-1 inhibitor (SC-560). SC-560 (Cayman chemical, MI) was dissolved at 50 mg/ml in DMSO and further dissolved in PBS in order to gavage a dose of 5 mg/kg in 100 ul.

wild-type mice [2] = assay: APAP induced hepatotoxicity, serum ALT at 12 hours; assay type: in vivo, mouse; details: aspirin pre-treatment in drinking water; 12 hrs after APAP; P<0.04
Description: as §1
Aspirin (Sigma, Mo.) was made fresh for each experiment. For dosing prior to APAP it was dissolved in single deionized water at 60 mg/l and heated to 42° C. with rapid stirring to dissolve, then rapidly placed in an ice water bath to cool. Aspirin in water was given to the mice 60-72 hours prior to APAP injection. Assuming water consumption of 3-5 ml per day this dose would be equivalent to a 300-500 mg dose in an 80 kg adult human. For co-administration of APAP and aspirin, aspirin was gavaged at a dose of 6 mg/kg in a volume of 100 ul of water immediately after ip injection of APAP. […]
(§3) TLR9 antagonist (ODN2088, 50 microg×2) or PBS, were injected ip into wild-type mice immediately after and at 6 hours after APAP injection and total mouse liver was obtained 12 hours after APAP injection for quantitative Q-PCR for IL-1β. […]

pro-IL-1β transcript = assay: Quantitative real-time PCR of total liver 12 hours after APAP, pro-IL-1β; assay type: in vivo, mouse; details: aspirin pre-treatment in drinking water
Description: as §1, §3
Q-PCR was performed for IL-1β and IL-18 using commercial primer-probe sets (Applied Biosystems, Framingham, Mass.) and the Applied Biosystem 7500 real-time PCR system. Expression of glyceraldehyde 3-phosphate dehydrogenase was used to standardize the samples, and the results were expressed as a ratio compared with untreated HSCs. Quantitative Real-time PCR for mRNA expression of IL-18, IL-1β, TNF-α and IFN-γ. […] Quantitative real-time PCR (Q-PCR) was performed for IL-18 and IL-1β using commercial primer-probe sets (Applied Biosystems, Calif.) and the Applied Biosystem 7500 real time PCR system. […]

pro-IL-18 transcript = assay: Quantitative real-time PCR of total liver 12 hours after APAP, pro-IL-18; assay type: in vivo, mouse; details: aspirin pre-treatment in drinking water
Description: as §1
(§4) Q-PCR was performed for IL-1β and IL-18 using commercial primer-probe sets (Applied Biosystems, Framingham, Mass.) and the Applied Biosystem 7500 real-time PCR system. Expression of glyceraldehyde 3-phosphate dehydrogenase was used to standardize the samples, and the results were expressed as a ratio compared with untreated HSCs. Quantitative Real-time PCR for mRNA expression of IL-18, IL-1β, TNF-α and IFN-γ. Total mouse liver was obtained 12 hours after APAP and cDNA was prepared. Quantitative real-time PCR (Q-PCR) was performed for IL-18 and IL-1β using commercial primer-probe sets (Applied Biosystems, Calif.) and the Applied Biosystem 7500 real time PCR system. Expression of GAPDH was used to standardize the samples, and the results were expressed as a ratio compared to control.

TNF-α = assay: Quantitative real-time PCR of total liver 12 hours after APAP, TNF-α; assay type: in vivo, mouse; details: aspirin pre-treatment
Description: as §1, §4

IFN-γ = assay: Quantitative real-time PCR of total liver 12 hours after APAP, IFN-γ; assay type: in vivo, mouse; details: aspirin pre-treatment
Description: as §1, §4

wild-type mice [3] = assay: APAP induced hepatotoxicity, liver histology (H&E) at 12 hours; assay type: in vivo, mouse; details: aspirin 60 mg/l in drinking water three days before APAP; 12 hours after APAP
Description: as §1
as §2, with “SC-560 (Cayman chemical, MI) was dissolved at 50 mg/ml in DMSO and further dissolved in PBS in order to gavage a dose of 5 mg/kg in 100 ul.” left out

IL-1β = assay: ELISA for serum IL-1β after APAP; assay type: in vivo, mouse; details: APAP with vs without ASA in drinking water; p<0.02
Description: ELISA for serum IL1-β was carried out by standard protocols.

NALP3 inflammasome = assay: Uric acid (MSU crystal) peritonitis, Gr-1 positive neutrophils in peritoneal lavage; assay type: in vivo, mouse; details: low dose aspirin (60 mg/l) in drinking water for three days before MSU 3 mg ip; lavage at 3 hours
Description: Peritonitis was induced with uric acid crystals as previously described by injecting 3 mg of MSU intraperitoneally per mouse (27). Three hours after injection peritoneal lavage was performed on mice euthanized by isoflurane inhalation. Neutrophil infiltration was evaluated by flow cytometry. The percent of Gr-1 (BD Pharmingen, CA) positive cells was multiplied by the total cell counts.

[4] = system: pro-IL-1β transcript in THP1 cells; assay: THP1 cells stimulated with LPS, real-time PCR pro-IL-1β; assay type: cell-based, human; details: THP1 cells incubated overnight with aspirin (1.5 mM, 0.15 mM), then LPS 10 μg/ml 8 hours
Description: The human monocytic cell line THP1 was maintained in RPMI with 10% FBS. Stimulation with LPS (Sigma, Mo.) was performed by plating cells at 5×10^5 per 24 well, incubating overnight with aspirin or control media prior to adding LPS at 10 μg/ml for 8 hours.

mice and rats = details: aspirin 200-600 mg/kg (dose range toxic to humans); cited from earlier work

Compound: COC(=O)[C@H](c1ccccc1Cl)N1CCc2sccc2C1 [clopidogrel]
- protection against APAP toxicity (survival) (wild-type mice [1]; clopidogrel 30 mg/kg gavage every 24 hrs from 48 hours before to 24 hours after APAP, n=15 each, P<0.31): did not protect

Compound: COc1ccc(-n2nc(C(F)(F)F)cc2-c2ccc(Cl)cc2)cc1 [SC-560]
- protection against APAP toxicity (survival) (wild-type mice [1]; SC-560 5 mg/kg gavage twice daily from 60 hours before to 48 hours after APAP, n=10 each, P<0.97): did not protect

Compound: CC(=O)Oc1ccccc1C(=O)O [aspirin, acetylsalicylic acid]
- survival after APAP (wild-type mice [1]; aspirin 60 mg/l in drinking water 3 days before APAP 500 mg/kg ip, control n=13, aspirin n=17, P<0.02): markedly improved survival
- survival (wild-type mice [1]; aspirin given concordantly with APAP, 6 mg/kg gavage, control 22%+/−19%, P<0.04): 43%+/−11%
- serum ALT (wild-type mice [2]): significantly lower
- increase in pro-IL-1β message by APAP, whole liver (pro-IL-1β transcript): reduced to normal levels
- increase in pro-IL-18 message by APAP, whole liver (pro-IL-18 transcript): reduced to normal levels
- expression of TNF-α, whole liver (TNF-α): reduced
- expression of IFN-γ, whole liver (IFN-γ): reduced
- liver histology (liver injury and hemorrhage) (wild-type mice [3]): significant reduction in APAP induced liver injury and hemorrhage; also recorded: markedly improved
- serum IL-1β levels (IL-1β): significant reduction
- neutrophil exudates in MSU peritonitis (NALP3 inflammasome): eightfold reduction
- LPS induced up-regulation of pro-IL-1β transcript [4]: reduced
- liver injury from APAP (mice and rats): reduce liver injury
- survival from APAP (mice and rats): not improve survival
